Assay results as given in patent US8680108B2, “Substituted fused aryl and heteroaryl derivatives as PI3K inhibitors” (Incyte Corporation, priority 2009, dated 2014).
Read-outs that look alike come from different tables or passages of the source.

Experiments:
PI3Kδ (p110δ/p85α) = target: T1, PI3Kδ (p110δ/p85α) (Homo sapiens, UniProt O00329); assay: PI3Kδ scintillation proximity assay; assay type: biochemical
T1 construct: purchased Millipore (Bedford, Mass.)
In short: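 Purified p110δ/p85α (4 nM) phosphorylated 20 μM diC8-PIP2 with 20 μM ATP plus [γ-33P]ATP in MOPS pH 6.7, MgCl2, DTT, CHAPS, 0.5% DMSO, 210 minutes at room temperature. Stopped with EDTA/ATP quench containing WGA SPA beads; scintillation counted. IC50 from percent control activity versus log inhibitor concentration.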

[1] = tested on: Pfeiffer cell line (diffuse large B cell lymphoma); assay: Pfeiffer cell proliferation assay; assay type: cell-based
Experimental: Pfeiffer cell line (diffuse large B cell lymphoma) was purchased from ATCC (Manassas, Va.) and maintained in the culture medium recommended (RPMI and 10% FBS). To measure the anti-proliferation activity of the compounds, the Pfeiffer cells were plated with the culture medium (2×10^3 cells/well/per 200 μl) into 96-well ultra-low binding plates (Corning, Corning, N.Y.), in the presence or absence of a concentration range of test compounds. […]

[2] = Homo sapiens, Pfeiffer, first of two isolated isomers
[3] = Homo sapiens, Pfeiffer, second of two isolated isomers

T1 sequence (O00329 whole entry): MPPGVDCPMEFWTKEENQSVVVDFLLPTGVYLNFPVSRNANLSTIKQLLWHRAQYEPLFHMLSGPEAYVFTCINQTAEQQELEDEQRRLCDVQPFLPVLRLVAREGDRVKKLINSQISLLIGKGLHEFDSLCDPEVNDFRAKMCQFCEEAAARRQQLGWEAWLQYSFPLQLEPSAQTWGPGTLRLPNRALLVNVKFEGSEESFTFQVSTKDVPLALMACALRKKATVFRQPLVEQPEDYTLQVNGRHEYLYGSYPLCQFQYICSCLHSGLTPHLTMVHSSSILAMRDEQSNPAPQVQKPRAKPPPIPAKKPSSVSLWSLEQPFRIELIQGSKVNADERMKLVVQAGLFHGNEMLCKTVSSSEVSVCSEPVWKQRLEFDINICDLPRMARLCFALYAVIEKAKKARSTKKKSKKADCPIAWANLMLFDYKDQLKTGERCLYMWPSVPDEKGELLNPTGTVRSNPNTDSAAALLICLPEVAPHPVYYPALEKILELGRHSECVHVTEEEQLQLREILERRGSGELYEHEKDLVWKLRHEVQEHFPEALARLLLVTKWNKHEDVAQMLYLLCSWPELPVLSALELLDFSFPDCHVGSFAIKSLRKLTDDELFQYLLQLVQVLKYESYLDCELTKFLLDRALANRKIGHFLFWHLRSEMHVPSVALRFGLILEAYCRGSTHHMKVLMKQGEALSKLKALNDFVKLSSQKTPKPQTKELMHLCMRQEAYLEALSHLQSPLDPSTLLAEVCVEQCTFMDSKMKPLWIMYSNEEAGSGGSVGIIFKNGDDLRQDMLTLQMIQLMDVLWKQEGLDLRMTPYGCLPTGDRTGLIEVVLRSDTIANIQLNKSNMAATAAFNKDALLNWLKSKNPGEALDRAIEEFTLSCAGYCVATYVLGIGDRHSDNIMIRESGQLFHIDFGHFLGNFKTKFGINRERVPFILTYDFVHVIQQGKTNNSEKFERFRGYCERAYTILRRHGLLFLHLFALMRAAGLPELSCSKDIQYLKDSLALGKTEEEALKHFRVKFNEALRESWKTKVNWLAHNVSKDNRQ
T1 sequence (P27986 whole entry partner): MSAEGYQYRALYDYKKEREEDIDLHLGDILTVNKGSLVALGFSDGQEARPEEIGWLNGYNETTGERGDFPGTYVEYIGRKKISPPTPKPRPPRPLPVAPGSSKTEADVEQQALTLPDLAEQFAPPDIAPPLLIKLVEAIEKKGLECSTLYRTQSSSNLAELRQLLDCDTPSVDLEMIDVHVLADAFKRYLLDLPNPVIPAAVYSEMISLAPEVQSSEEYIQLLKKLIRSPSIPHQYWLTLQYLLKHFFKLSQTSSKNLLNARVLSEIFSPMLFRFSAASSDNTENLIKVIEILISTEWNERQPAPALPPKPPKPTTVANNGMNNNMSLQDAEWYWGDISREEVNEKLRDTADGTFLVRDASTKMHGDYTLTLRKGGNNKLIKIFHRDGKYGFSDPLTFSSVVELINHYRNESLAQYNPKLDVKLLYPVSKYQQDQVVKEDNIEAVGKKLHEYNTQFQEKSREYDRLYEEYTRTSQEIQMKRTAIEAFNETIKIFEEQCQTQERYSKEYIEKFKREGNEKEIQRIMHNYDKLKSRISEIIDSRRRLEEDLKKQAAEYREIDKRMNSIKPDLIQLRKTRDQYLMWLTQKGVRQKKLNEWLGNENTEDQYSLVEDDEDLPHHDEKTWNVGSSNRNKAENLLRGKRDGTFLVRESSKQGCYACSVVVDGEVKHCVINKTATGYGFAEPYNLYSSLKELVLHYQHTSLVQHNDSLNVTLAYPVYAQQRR

Compound | IC50 (PI3Kδ (p110δ/p85α); separated isomer, 1st peak) [µM] | IC50 (PI3Kδ (p110δ/p85α); separated isomer, 2nd peak) [µM] | IC50 [1, 2] [µM] | IC50 [1, 3] [µM] | IC50 (PI3Kδ (p110δ/p85α)) [µM] | IC50 ([1]; [3H]-thymidine incorporation) [µM]
CC(Nc1ncnc2[nH]cnc12)c1cc(Cl)c2cccnc2c1N1CCCC(CO)C1 (centres unmarked) [Example 63, (1-{5-Chloro-7-[1-(9H-purin-6-ylamino)ethyl]quinolin-8-yl]piperidin-3-yl)methanol tris(trifluoroacetate)] | 0.1 to 0.25 | 0.1 to 0.25 | > 1 | > 1 |  | 
CC(Nc1ncnc2[nH]cnc12)c1cc(Cl)c2cccnc2c1N1CCC(Oc2ccccc2)CC1 (centres unmarked) [Example 75, N-{1-[5-Chloro-8-(4-phenoxypiperidin-1yl)quinolin-7-yl]ethyl}-9H-purin-6-amine bis(trifluoroacetate)] |  |  |  | 0.25 to 0.5 | > 1 | 
CC(C)C(=O)N[C@H]1CCN(c2c(C(C)Nc3ncnc4[nH]cnc34)cc(Cl)c3cccnc23)C1 (stereo partly drawn) [Example 78, N-((3S)-1-{5-Chloro-7-[1-(9H-purin-6-ylamino)ethyl]quinolin-8-yl}pyrrolidin-3-yl)-2-methylpropanamide tris(trifluoroacetate)] | > 1 | < 0.05 |  | 0.5 to 1 |  | 
COC1CCN(c2c(C(C)Nc3ncnc4[nH]cnc34)cc(Cl)c3cccnc23)C1 (centres unmarked) [Example 68, N-{1-[5-Chloro-8-(3-methoxypyrrolidin-1-yl)quinolin-7-yl]ethyl}-9H-purin-6-amine tris(trifluoroacetate)] | 0.05 to 0.1 | < 0.05 | 0.1 to 0.25 | 0.05 to 0.1 |  | 
COC1CCCN(c2c(C(C)Nc3ncnc4[nH]cnc34)cc(Cl)c3cccnc23)C1 (centres unmarked) [Example 67, N-{1-[5-Chloro-8-(3-methoxypiperidin-1-yl)quinolin-7-yl]ethyl}-9H-purin-6-amine tris(trifluoroacetate)] | 0.1 to 0.25 | 0.25 to 0.5 | 0.1 to 0.25 | 0.1 to 0.25 |  | 
Cc1cc(C(C)Nc2ncnc3[nH]cnc23)c(-c2cccc(F)c2)c2nnccc12 (single isomer, unassigned) [Example 37, N-{1-[8-(3-fluorophenyl)-5-methylcinnolin-7-yl]ethyl}-9H-purin-6-amine] |  |  |  |  | 0.5 to 1 | 0.5 to 1
CC(Nc1ncnc2[nH]cnc12)c1cc(Cl)c2cccnc2c1N1CC[C@H](NS(C)(=O)=O)C1 (stereo partly drawn) [Example 80, N-((3S)-1-{5-Chloro-7-[1-(9H-purin-6-ylamino)ethyl]quinolin-8-yl}pyrrolidin-3-yl)methanesulfonamide tris(trifluoroacetate)] | 0.25 to 0.5 | < 0.05 |  | 0.1 to 0.25 |  | 
CC(Nc1ncnc2[nH]cnc12)c1cc(Cl)c2cccnc2c1N1CCC[C@H](O)C1 (stereo partly drawn) [Example 48, (3S)-1-{5-Chloro-7-[1-(9H-purin-6-ylamino)ethyl]quinolin-8-yl}piperidin-3-ol] | < 0.05 | > 1 | > 1 | > 1 |  | 
CC(Nc1ncnc2[nH]cnc12)c1cc(F)c2cccnc2c1N1CC[C@@H](O)C1 (stereo partly drawn) [Example 53, (3R)-1-{5-fluoro-7-[1-(9H-purin-6-ylamino)ethyl]quinolin-8-yl}pyrrolidin-3-ol] | > 1 | 0.1 to 0.25 |  | 0.25 to 0.5 |  | 
COC(=O)N[C@H]1CCN(c2c(C(C)Nc3ncnc4[nH]cnc34)cc(Cl)c3cccnc23)C1 (stereo partly drawn) [Example 79, Methyl((3S)-1-{5-Chloro-7-[1-(9H-purin-6-ylamino)ethyl]quinolin-8-yl}pyrrolidin-3-yl)carbamate tris(trifluoroacetate)] | 0.05 to 0.1 | < 0.05 | 0.25 to 0.5 | 0.1 to 0.25 |  | 
Cc1cc(C(C)Nc2ncnc3[nH]cnc23)c(-c2cccc(F)c2)c2nnccc12 (single isomer, unassigned) [Example 36, N-{1-[8-(3-fluorophenyl)-5-methylcinnolin-7-yl]ethyl}-9H-purin-6-amine] |  |  |  |  | < 0.05 | < 0.05
